According to patent publication US8673966B2, “ALDH-2 inhibitors in the treatment of addiction” (Gilead Sciences, Inc., priority 2011, dated 2014):
“And” between values parts separate entries of the source, which are not always exact repeats. Equal values may be shown once. “Also recorded” adds a separate entry of the source.

Tests used:
[1] = system: cocaine dependency and relapse; experiment: Operant cocaine self administration and reinstatement model in rats; settings: p.o.
hMAO-A = hMAO-A (Homo sapiens (Human), UniProt P21397); experiment: MAO-A assay (luminogenic MAO substrate); type: biochemical; settings: microsome contained MAO-A, 160 uM substrate, 20 min pre-incubation; unit inferred
Description: (§1) MAO assays included luminogenic MAO substrate, reaction buffers, Luciferin Detection and the reconstitution buffer with esterase. Standard MAO reaction mixtures included microsome contained MAO-A (2 ug) or MAO-B (10 ug), 160 uM substrate for MAO-A or 16 uM substrate for MAO-B, MAO-A buffer (100 mM Hepes buffer, pH 7.5, 5% glycerol) or MAO-B buffer (100 mM Hepes, pH 7.5, 5% glycerol, 10% dimethyl sulfoxide) in a final volume of 30 ul. After 20 minutes of pre-incubation of the enzyme with compounds, the reaction was initiated by adding enzyme substrate and the reaction was allowed to proceed for 60 minutes. Reconstituted Luciferin Detection Reagent (30 ul) was then added is added to simultaneously stop the MAO reaction and convert the methyl ester derivative to luciferin and produce light. The amount of light produced is directly proportional to the activity of MAO. The mixtures were further incubated for 20 minutes and activity of the enzyme was determined using Perkin-Elmer Envision Reader.
(§2) Note: IC50 refers to the concentration of a compound that inhibits a reaction by 50%. In the case of competitive inhibition, IC50=2Ki when the substrate is present at the Km concentration, as per the relationship: Ki=IC50/[1+(substrate concentration/Km)].

recombinant human ALDH2 = recombinant human ALDH2 (Homo sapiens (Human), UniProt P05091); experiment: ALDH2 assay (NADH formation); type: biochemical; settings: 10 nM recombinant human ALDH2, 150 uM formaldehyde, 60 min pre-incubation; read-out: IC50 hALDH2
Description: Standard ALDH2 reaction mixtures contained 150 uM formaldehyde, 2.5 mM NAD^+, 10 mM MgCl2 and 10 nM recombinant human ALDH2 in 50 mM Hepes buffer, pH 7.4, 0.01% Tween 20 in a final volume of 50 ul using 384-well plates. After 60 min of pre-incubation of compound with ALDH2 and formaldehyde, the reaction was started by adding NAD+ and the reaction mixture was allowed to proceed for 90 minutes. Activity of the enzyme was determined by monitoring NADH formation using Perkin-Elmer Envision Reader with excitation and emission wavelengths set at 340 and 460 nm, respectively.
as §2

hMAO-B = hMAO-B (Homo sapiens (Human), UniProt P27338); experiment: MAO-B assay (luminogenic MAO substrate); type: biochemical; settings: microsome contained MAO-B, 16 uM substrate, 20 min pre-incubation; unit inferred
Description: as §1, §2

[2] = biological target: human mitochondrial aldehyde dehydrogenase (ALDH-2) (Homo sapiens (Human), UniProt P05091); settings: U.S. Pat. Nos. 5,624,910 and 6,121,010; cited from earlier work
ethanol intake = settings: literature (Keung and Vallee); cited from earlier work

hMAO-A, sequence (P21397 whole entry): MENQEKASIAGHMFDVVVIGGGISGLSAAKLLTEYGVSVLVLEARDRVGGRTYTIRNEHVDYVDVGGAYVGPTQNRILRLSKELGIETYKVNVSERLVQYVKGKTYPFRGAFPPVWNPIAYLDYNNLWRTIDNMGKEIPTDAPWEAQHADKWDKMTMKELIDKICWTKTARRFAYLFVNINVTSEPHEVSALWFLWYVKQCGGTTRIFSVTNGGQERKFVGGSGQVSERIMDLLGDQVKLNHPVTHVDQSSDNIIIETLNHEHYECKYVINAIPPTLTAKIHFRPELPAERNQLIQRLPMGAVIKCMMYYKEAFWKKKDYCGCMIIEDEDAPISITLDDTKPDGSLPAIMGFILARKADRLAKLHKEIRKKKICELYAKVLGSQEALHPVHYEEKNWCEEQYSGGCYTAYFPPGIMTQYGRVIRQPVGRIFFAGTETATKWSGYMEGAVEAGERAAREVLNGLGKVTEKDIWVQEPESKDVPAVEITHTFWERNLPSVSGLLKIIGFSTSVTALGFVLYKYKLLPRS
hMAO-B, sequence (P27338 whole entry): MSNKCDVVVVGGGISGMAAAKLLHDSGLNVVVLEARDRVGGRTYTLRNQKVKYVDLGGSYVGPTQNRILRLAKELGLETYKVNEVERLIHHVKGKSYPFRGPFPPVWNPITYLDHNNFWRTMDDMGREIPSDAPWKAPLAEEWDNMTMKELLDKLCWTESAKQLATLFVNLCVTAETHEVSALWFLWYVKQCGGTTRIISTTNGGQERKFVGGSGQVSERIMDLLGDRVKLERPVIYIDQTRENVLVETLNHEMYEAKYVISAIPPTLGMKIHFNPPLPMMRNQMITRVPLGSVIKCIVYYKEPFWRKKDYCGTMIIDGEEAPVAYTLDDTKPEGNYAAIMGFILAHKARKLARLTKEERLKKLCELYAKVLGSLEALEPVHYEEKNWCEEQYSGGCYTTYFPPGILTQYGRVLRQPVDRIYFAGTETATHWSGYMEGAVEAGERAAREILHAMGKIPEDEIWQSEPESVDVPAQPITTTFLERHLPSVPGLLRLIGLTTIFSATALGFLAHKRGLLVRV
recombinant human ALDH2, sequence (P05091 18-517): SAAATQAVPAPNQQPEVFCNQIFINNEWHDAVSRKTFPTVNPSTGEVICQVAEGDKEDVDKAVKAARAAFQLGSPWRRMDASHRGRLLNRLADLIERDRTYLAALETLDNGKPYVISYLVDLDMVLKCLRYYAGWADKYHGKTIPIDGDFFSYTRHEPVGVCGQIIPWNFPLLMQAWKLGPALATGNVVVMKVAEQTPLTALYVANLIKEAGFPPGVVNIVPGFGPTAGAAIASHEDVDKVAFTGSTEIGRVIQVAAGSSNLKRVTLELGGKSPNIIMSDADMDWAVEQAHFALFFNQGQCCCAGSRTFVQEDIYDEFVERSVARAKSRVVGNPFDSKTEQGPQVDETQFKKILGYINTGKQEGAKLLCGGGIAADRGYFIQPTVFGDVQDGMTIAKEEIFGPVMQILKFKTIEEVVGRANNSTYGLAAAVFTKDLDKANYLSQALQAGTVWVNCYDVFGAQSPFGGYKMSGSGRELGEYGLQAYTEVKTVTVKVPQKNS
human mitochondrial aldehyde dehydrogenase (ALDH-2), sequence (P05091 18-517): as above

Row | Structure (SMILES) | IC50 (hMAO-A) | IC50 (recombinant human ALDH2) | IC50 (hMAO-B) | reduced cocaine dependency, as reduction in the average presses of the active lever ([1]; 2.5 mg/Kg, 2 hour pre-treatment) | reduced cocaine dependency, as reduction in the average presses of the active lever ([1]; 5.0 mg/Kg, 2 hour pre-treatment) | reduced cocaine dependency, as reduction in the average presses of the active lever ([1]; 10.0 mg/kg, 1 hour pre-treatment) | inhibition of ALDH-2 [2] | suppressing ethanol intake (ethanol intake)
1 | O=c1c(-c2ccc(O)cc2)coc2cc(O[C@@H]3O[C@H](CO)[C@@H](O)[C@H](O)[C@H]3O)ccc12 [Daidzin, daidzin] | – | – | – | – | – | – | potent and selective inhibitors | –
2 | O=c1c(-c2ccc(O)cc2)coc2cc(O)ccc12 [daidzein] | – | – | – | – | – | – | – | effective in suppressing ethanol intake; also recorded: effective in suppressing ethanol uptake
3 | CS(=O)(=O)Nc1ccc(-c2coc3cc(C#Cc4cc[nH]c(=O)c4)ccc3c2=O)cc1 [N-(4-(4-oxo-7-((2-oxo-1,2-dihydropyridin-4-yl)ethynyl)-4H-chromen-3-yl)phenyl)methanesulfonamide] | > 130000 nM | 9 nM | > 130000 nM | – | – | – | – | –
4 | CC1(C(=O)N2CC(C#Cc3ccc4c(=O)c(-c5ccc(NS(C)(=O)=O)cc5)coc4c3)C2)COC1 [N-(4-(7-((1-(3-methyloxetane-3-carbonyl)azetidin-3-yl)ethynyl)-4-oxo-4H-chromen-3-yl)phenyl)methanesulfonamide] | > 130000 nM | 6 nM | > 130000 nM | – | – | – | – | –
5 | CC(C)CN1CC(C#Cc2ccc3c(=O)c(-c4ccc(NS(C)(=O)=O)cc4)coc3c2)C1 [N-(4-(7-((1-isobutylazetidin-3-yl)ethynyl)-4-oxo-4H-chromen-3-yl)phenyl)methanesulfonamide] | > 130000 nM | 109 nM | > 130000 nM | – | – | – | – | –
6 | CC(O)C(=O)N1CC(C#Cc2ccc3c(=O)c(-c4ccc(NS(C)(=O)=O)cc4)coc3c2)C1 (centres unmarked) [N-(4-(7-((1-(2-hydroxypropanoyl)azetidin-3-yl)ethynyl)-4-oxo-4H-chromen-3-yl)phenyl)methanesulfonamide] | > 130000 nM | 15 nM | > 130000 nM | – | – | – | – | –
7 | CS(=O)(=O)Nc1ccc(-c2coc3cc(C#CC4CNC4)ccc3c2=O)cc1 [N-(4-(7-(azetidin-3-ylethynyl)-4-oxo-4H-chromen-3-yl)phenyl)methanesulfonamide] | > 130000 nM | 266 nM | > 94400 nM | – | – | – | – | –
8 | CC(C)(C)OC(=O)N1CCC(C#Cc2ccc3c(=O)c(-c4ccc(NS(C)(=O)=O)cc4)coc3c2)CC1 [tert-butyl 4-((3-(4-(methylsulfonamido)phenyl)-4-oxo-4H-chromen-7-yl)ethynyl)piperidine-1-carboxylate] | > 130000 nM | 86 nM | > 130000 nM | – | – | – | – | –
9 | CS(=O)(=O)Nc1ccc(-c2coc3cc(C#Cc4cncnc4)ccc3c2=O)cc1 [N-(4-(4-oxo-7-(pyrimidin-5-ylethynyl)-4H-chromen-3-yl)phenyl)methanesulfonamide] | > 130000 nM | 57 nM | 114000 nM | – | – | – | – | –
10 | CN(C)CCC(=O)N1CC(C#Cc2ccc3c(=O)c(-c4ccc(NS(C)(=O)=O)cc4)coc3c2)C1 [N-(4-(7-((1-(3-(dimethylamino)propanoyl)azetidin-3-yl)ethynyl)-4-oxo-4H-chromen-3-yl)phenyl)methanesulfonamide] | 46900 nM | 64 nM | > 130000 nM | – | – | – | – | –
11 | CS(=O)(=O)Nc1ccc(-c2coc3cc(C#CC4CCOCC4)ccc3c2=O)cc1 [N-(4-(4-oxo-7-((tetrahydro-2H-pyran-4-yl)ethynyl)-4H-chromen-3-yl)phenyl)methanesulfonamide] | > 130000 nM | 43 nM | > 130000 nM | – | – | – | – | –

Continued, in another order:

Row | IC50 (hMAO-A) | IC50 (recombinant human ALDH2) | IC50 (hMAO-B) | Structure (SMILES) | reduced cocaine dependency, as reduction in the average presses of the active lever ([1]; 2.5 mg/Kg, 2 hour pre-treatment) | reduced cocaine dependency, as reduction in the average presses of the active lever ([1]; 5.0 mg/Kg, 2 hour pre-treatment) | reduced cocaine dependency, as reduction in the average presses of the active lever ([1]; 10.0 mg/kg, 1 hour pre-treatment) | inhibition of ALDH-2 [2] | suppressing ethanol intake (ethanol intake)
12 | > 130000 nM | 5 nM | > 130000 nM | CS(=O)(=O)Nc1ccc(-c2coc3cc(C#CC4CN(C(=O)C5CC5)C4)ccc3c2=O)cc1 [N-(4-(7-((1-(cyclopropanecarbonyl)azetidin-3-yl)ethynyl)-4-oxo-4H-chromen-3-yl)phenyl)methanesulfonamide] | 70% | 60% | 87% | – | –
13 | > 130000 nM | 386 nM and 156 nM | > 130000 nM | CS(=O)(=O)Nc1ccc(-c2coc3cc(C#CC4(O)CCCC4)ccc3c2=O)cc1 [N-(4-(7-((1-hydroxycyclopentyl)ethynyl)-4-oxo-4H-chromen-3-yl)phenyl)methanesulfonamide] | – | – | – | – | –
14 | > 130000 nM | 6 nM | > 130000 nM | CS(=O)(=O)Nc1ccc(-c2coc3cc(C#CC4CN(C(=O)C5CC(F)(F)C5)C4)ccc3c2=O)cc1 [N-(4-(7-((1-(3,3-difluorocyclobutanecarbonyl)azetidin-3-yl)ethynyl)-4-oxo-4H-chromen-3-yl)phenyl)methanesulfonamide] | – | – | – | – | –
15 | > 130000 nM | 96 nM | > 130000 nM | COCC#Cc1ccc2c(=O)c(-c3ccc(NS(=O)(=O)C4CC4)cc3)coc2c1 [N-(4-(7-(3-methoxyprop-1-ynyl)-4-oxo-4H-chromen-3-yl)phenyl)cyclopropanesulfonamide] | – | – | – | – | –
16 | > 130000 nM | 1710 nM | > 130000 nM | CS(=O)(=O)Nc1ccc(-c2coc3cc(C#CC4(O)CCCCC4)ccc3c2=O)cc1 [N-(4-(7-((1-hydroxycyclohexyl)ethynyl)-4-oxo-4H-chromen-3-yl)phenyl)methanesulfonamide] | – | – | – | – | –
17 | > 130000 nM | 4 nM | > 130000 nM | CS(=O)(=O)Nc1ccc(-c2coc3cc(C#CC4CN(C(=O)C5CCC5)C4)ccc3c2=O)cc1 [N-(4-(7-((1-(cyclobutanecarbonyl)azetidin-3-yl)ethynyl)-4-oxo-4H-chromen-3-yl)phenyl)methanesulfonamide] | – | – | – | – | –
18 | > 130000 nM | < 4.9 nM | 365 nM | Cn1cncc1C#Cc1ccc2c(=O)c(-c3ccc(NS(C)(=O)=O)cc3)coc2c1 [N-(4-(7-((1-methyl-1H-imidazol-5-yl)ethynyl)-4-oxo-4H-chromen-3-yl)phenyl)methanesulfonamide] | – | – | – | – | –
19 | 110000 nM | 5 nM | > 130000 nM | CC(C)(C)OC(=O)NC1(C(=O)N2CC(C#Cc3ccc4c(=O)c(-c5ccc(NS(C)(=O)=O)cc5)coc4c3)C2)CC1 [tert-butyl 1-(3-((3-(4-(methylsulfonamido)phenyl)-4-oxo-4H-chromen-7-yl)ethynyl)azetidine-1-carbonyl)cyclopropylcarbamate] | – | – | – | – | –
